This is an account of results in US10513519B2, “Solid forms of (1S,4S)-4-(2-(((3S,4R)-3-fluorotetrahydro-2H-pyran-4-yl)amino)-8-((2,4,6-trichlorophenyl)amino)-9H-purin-9-yl)-1-methylcyclohexane-1-carboxamide and methods of their use” (Signal Pharmaceuticals, LLC, priority 2016, dated 2019).

Assay [1] concerns IL-2 and IFNγ production by PBMC-derived T cells. The assay is described as follows: Co-culture of compound-treated KARPAS-299 cells with SEB-stimulated PBMC: IL-2 and IFNγ. It counts as cell-based, human. As to conditions: SEB 20 ng/ml, treated KARPAS-299 cells co-cultured with PBMC. The method, then:
To determine if Compound 1 down-regulation of PD-L1 enhances T cell activation, compound-treated KARPAS-299 cancer cells were co-cultured with PBMC-derived T cells stimulated with low concentrations of super antigen (SEB). KARPAS-299 cells were treated with DMSO (D) or Compound 1 at indicated concentrations for 48 h. PBMC from healthy donors were treated with or without 20 ng/ml SEB for 48 h. After wash with PBS, the PBMCs were incubated with the cancer cells for 24 h and the supernatants were collected to measure IL-2 and IFNγ using Mesoscale assays.

Another assay deals with cancer cell lines. The assay is described as follows: Multiplexed cytotoxicity assay: apoptosis (activated caspase-3 induction). It counts as cell-based. The note with it: KLE, Female GU, Uterus; 72 h. The protocol: Cells are grown in RPMI1640, 10% FBS, 2 mM L-alanyl-L-Glutamine, 1 mM Na pyruvate or a special medium in a humidified atmosphere of 5% CO2 at 37° C. Cells are seeded into 384-well plates and incubated in a humidified atmosphere of 5% CO2 at 37° C. Compounds are added 24 h post cell seeding. At the same time, a time zero untreated cell plate is generated. After a 72 hour incubation period, cells are fixed and stained with fluorescently labeled antibodies and nuclear dye to allow visualization of nuclei, apoptotic cells and mitotic cells. Apoptotic cells are detected using an anti-active caspase-3 antibody. Mitotic cells are detected using an anti phospho-histone-3 antibody. […] Automated fluorescence microscopy was carried out using a Molecular Devices ImageXpress Micro XL high-content imager, and images are collected with a 4× objective. […]
In another experiment, cells were grown in RPMI1640, 10% FBS, 2 mM L-alanyl-L-Glutamine, 1 mM Na pyruvate or a special medium in a humidified atmosphere of 5% CO2 at 37° C. […] Apoptotic cells were detected using an anti-active caspase-3 antibody. Mitotic cells were detected using an anti phospho-histone-3 antibody. […] Automated fluorescence microscopy was carried out using a Molecular Devices ImageXpress Micro XL high-content imager, and images were collected with a 4× objective. […]

Assay [2] relates to DUSP4, DUSP6, SPRY2, c-Myc, cyclin D1, Axin2, CTGF, AREG mRNA in Colo 205 (BRAF V600E). The assay is described as follows: Quantitative PCR (Cell-To-CT kit) in Colo 205. The class given is cell-based. The protocol: The ability of Compound 1 to inhibit MAPK signaling was assessed by determining the DUSP4 and DUSP6 protein expression. Colon cancer cell line Colo 205 (BRAF V600E) cultures were treated with DMSO or increasing concentrations of Compound 1 for 2, 8 or 24 h. Proteins were extracted from treated cells and analyzed by Western blot using antibodies against DUSP4, DUSP6, cyclin D1, c-Myc, YAP or β-actin. RNAs were extracted using Cell-To-CT kit and quantitative PCR was performed with probes specific for DUSP4, DUSP6, SPRY2, c-Myc and cyclin D1. Specific probes for β-actin were used for normalization.
Cellular activity against beta-catenin and YAP target genes by Compound 1 was evaluated. Colon cancer cell line Colo 205 (BRAF V600E) cultures were treated with DMSO or increasing concentrations of Compound 1 for 2, 8 or 24 h. RNAs were extracted using Cell-To-CT kit and quantitative PCR was performed with probes specific for Axin2, CTGF, and AREG. Specific probes for β-actin were used for normalization.
Compound 1 modulation of MAPK, WNT/β-catenin, and Hippo/YAP pathway genes was evaluated by real-time (RT)-qPCR. […], SW48, and Colo-205 cells were plated in 96-well plates at a density of 20,000 cells per well and were allowed to attach overnight. Compound 1 was added to cells at half log concentrations from 1 nM to 10 μM for durations of 2, 8, and 24 hours. Cells were harvested using the TaqMan Gene Expression Cells-to-CT Kit according to the product manual. Next, RT-PCR was performed and the resulting cDNA was used in qPCR reactions on the ViiA7 Real-Time PCR System (Thermo Fisher Scientific). TaqMan probes were used to monitor changes in DUSP4, DUSP6, SPRY2, MYC, CCND1, AXIN2, CTGF, Cyr61, AREG, and ACTB genes. All genes were normalized to ACTB expression and reported as percentage of DMSO-only control.

Each structure is given as a SMILES string.

Regarding `C[C@]1(C(N)=O)CC[C@@H](n2c(Nc3c(Cl)cc(Cl)cc3Cl)nc3cnc(N[C@@H]4CCOC[C@H]4F)nc32)CC1` [Compound 1, cis-4-[2-{[(3S,4R)-3-fluorooxan-4-yl]amino}-8-(2,4,6-trichloroanilino)-9H-purin-9-yl]-1-methylcyclohexane-1-carboxamide], the “IL-2 and IFNγ production” value in assay [1] was “increased levels of both IL-2 and IFNγ production”. The same compound returned a CalX2 in the assay with cancer cell lines of 10 µM. Moreover, the “Axin2 RNA” value in assay [2] (Colo 205) is “increased Axin2 RNA”. Further, the “expression of Hippo/YAP target genes (CTGF, AREG)” value in assay [2] (Colo 205, 2, 8 and 24 hr) is given as “significantly reduced”. Further, the SPRY2 transcription entry in assay [2] (Colo 205, 2, 8 or 24 h) is recorded as “reduction of SPRY2 transcription in a concentration-dependent manner”.
